Article PMC4965013, “Open Source Drug Discovery with the Malaria Box Compound Collection for Neglected Diseases and Beyond” (PLoS Pathogens, 2016)

Columns and labels:
[1] = tested on: P. falciparum 3D7 trophozoites; experiment: Metabolomic fingerprint profiling LC-MS; format: cell-based, Plasmodium falciparum; set-up: UDP-D-glucose / ADP-D-glucose: unit not given here
[2] = tested on: P. falciparum; experiment: EC50 listed in S2 Table Metabolomics (used to set the concentration tested); format: cell-based; details: Plasmodium falciparum; EC50 used for Factor_XEC50 in metabolomics; read-out: EC50_nM
[3] = metabolite level change after treatment

## CCOC(=O)c1c(NC(=O)c2ccccc2)sc2c(O)c(CN(CC)CC)ccc12 [MMV665831]
[1]; S2 Table Metabolomics, metabolite Acetyllysine
  Acetyllysine: -3.559
[1]; S2 Table Metabolomics, metabolite N-acetyl-L-ornithine
  N-acetyl-L-ornithine: -2.775
[1]; S2 Table Metabolomics, metabolite N-carbamoyl-L-aspartate
  N-carbamoyl-L-aspartate: -1.992
[1]; S2 Table Metabolomics, metabolite NADPH
  NADPH: 1.923
[1]; S2 Table Metabolomics, metabolite dAMP
  dAMP: -1.503
[1]; S2 Table Metabolomics, metabolite dCMP
  dCMP: -0.7769
[1]; S2 Table Metabolomics, metabolite dTDP
  dTDP: -0.143
[1]; S2 Table Metabolomics, metabolite dTMP
  dTMP: 0.09088
[1]; S2 Table Metabolomics, metabolite dTTP
  dTTP: -0.5361
[1]; S2 Table Metabolomics, metabolite dihydroorotate
  dihydroorotate: -1.759
[1]; S2 Table Metabolomics, metabolite orotate
  orotate: -1.534
[1]; S2 Table Metabolomics, peptide DLH
  DLH: -5.287
[1]; S2 Table Metabolomics, peptide DLS/SDL/SID
  DLS/SDL/SID: -4.31
[1]; S2 Table Metabolomics, peptide PD
  PD: -4.8541
[1]; S2 Table Metabolomics, peptide PEE
  PEE: -3.834
[1]; S2 Table Metabolomics, peptide PVNF
  PVNF: -4.964
[1]; metabolite 3-phosphoglycerate, S2 Table Metabolomics
  3-phosphoglycerate: -0.2896
[1]; metabolite ADP-D-glucose, S2 Table Metabolomics
  ADP-D-glucose: -0.2463
[1]; metabolite ATP, S2 Table Metabolomics
  ATP: 0.0783
[1]; metabolite CDP, S2 Table Metabolomics, change in metabolite level after compound treatment
  CDP: 0.9119
[1]; metabolite D-sedoheptulose-1/7-phosphate, S2 Table Metabolomics, change in metabolite level after compound treatment
  D-sedoheptulose-1/7-phosphate: 0.4987
[1]; metabolite FAD, S2 Table Metabolomics
  FAD: 0.1414
[1]; metabolite GMP, S2 Table Metabolomics, change in metabolite level after compound treatment
  GMP: -0.668
[1]; metabolite NAD+, S2 Table Metabolomics
  NAD+: -0.0766
[1]; metabolite NADP+, S2 Table Metabolomics
  NADP+: 0.2915
[1]; metabolite Octoluse Bisphosphate, S2 Table Metabolomics, change in metabolite level after compound treatment
  Octoluse Bisphosphate: -0.5945
[1]; metabolite Pyroglutamic acid, S2 Table Metabolomics
  Pyroglutamic acid: 0.1607
[1]; metabolite UDP-D-glucose, S2 Table Metabolomics
  UDP-D-glucose: 0.05295
[1]; metabolite UDP-D-glucuronate, S2 Table Metabolomics
  UDP-D-glucuronate: 0.02399
[1]; metabolite UDP-N-acetyl-glucosamine, S2 Table Metabolomics
  UDP-N-acetyl-glucosamine: -0.03093
[1]; metabolite UDP, S2 Table Metabolomics, change in metabolite level after compound treatment
  UDP: 0.469
[1]; metabolite UMP, S2 Table Metabolomics, change in metabolite level after compound treatment
  UMP: -0.6472
[1]; metabolite UTP, S2 Table Metabolomics, change in metabolite level after compound treatment
  UTP: 0.04522
[1]; metabolite a-ketoglutarate, S2 Table Metabolomics
  a-ketoglutarate: -1.141
[1]; metabolite citrate/isocitrate, S2 Table Metabolomics, change in metabolite level after compound treatment
  citrate/isocitrate: 0.03995
[1]; metabolite cytidine, S2 Table Metabolomics
  cytidine: 0.9734
[1]; metabolite dATP, S2 Table Metabolomics
  dATP: -0.7894
[1]; metabolite dGMP/AMP, S2 Table Metabolomics, change in metabolite level after compound treatment
  dGMP/AMP: -0.1413
[1]; metabolite fumarate, S2 Table Metabolomics, change in metabolite level after compound treatment
  fumarate: -1.268
[1]; metabolite glucose-1/6-phosphate, S2 Table Metabolomics, change in metabolite level after compound treatment
  glucose-1/6-phosphate: -0.4706
[1]; metabolite glycerate, S2 Table Metabolomics, change in metabolite level after compound treatment
  glycerate: -0.5026
[1]; metabolite guanine, S2 Table Metabolomics, change in metabolite level after compound treatment
  guanine: -0.4153
[1]; metabolite guanosine, S2 Table Metabolomics, change in metabolite level after compound treatment
  guanosine: -0.8776
[1]; metabolite hypoxanthine, S2 Table Metabolomics
  hypoxanthine: -0.04834
[1]; metabolite indole, S2 Table Metabolomics
  indole: -0.03305
[1]; metabolite inosine, S2 Table Metabolomics, change in metabolite level after compound treatment
  inosine: -0.4277
[1]; [3]
  2_3-Diphosphoglyceric acid: 0.2082
  4-phosphopantothenate: -0.594
  6-phospho-D-gluconate: -0.9918
  FMN: 0.1595
  IMP: -0.2597
  Pyrophosphate: -0.0001746
  Sedoheptoluse bisphosphate: -0.3963
  cyclic-AMP: -0.8626
  glutathione disulfide: -0.3472
  lactate: -0.3473
  myo-inositol: -0.3976
[1]; metabolite nicotinate, S2 Table Metabolomics
  nicotinate: -0.05954
[1]; metabolite ornithine, S2 Table Metabolomics
  ornithine: -0.2486
[1]; metabolite phosphoenolpyruvate, S2 Table Metabolomics
  phosphoenolpyruvate: -0.1118
[1]; metabolite pyruvate, S2 Table Metabolomics, change in metabolite level after compound treatment
  pyruvate: -0.4191
[1]; metabolite ribose-phosphate, S2 Table Metabolomics
  ribose-phosphate: -0.6703
[1]; metabolite sarcosine/alanine, S2 Table Metabolomics, change in metabolite level after compound treatment
  sarcosine/alanine: -1.233
[1]; metabolite sn-glycerol-3-phosphate, S2 Table Metabolomics
  sn-glycerol-3-phosphate: -0.08824
[1]; metabolite succinate/methylmalonic acid, S2 Table Metabolomics, change in metabolite level after compound treatment
  succinate/methylmalonic acid: -0.8852
[1]; metabolite uridine, S2 Table Metabolomics, change in metabolite level after compound treatment
  uridine: -0.3477
[1]; metabolite xanthosine, S2 Table Metabolomics, change in metabolite level after compound treatment
  xanthosine: -1.069
[2]
  EC50: 0.205 µM
